# Measured values reported in publication doi:10.1101/2021.05.05.442810v1 (biorxiv, 2021).
# Molecular target: truncated variant of M. xanthus ParB (NB and DNA-binding domains) (Myxococcus xanthus, UniProt Q1CVJ4)
# Conditions: formed from CTPγS in crystallization; Mg2+; with thiophosphate; pH 8.5
smiles,measurement,value
Nc1ccn([C@@H]2O[C@H](COP(=O)(O)OP(=O)(O)O)[C@@H](O)[C@H]2O)c(=O)n1 [CDP],X-ray crystal structure (1.9 Å),we did not detect CTPγS but CDP
